Experiment: xn = mol fraction of the nth substance listed
Details: 101 kPa, Liquid; for speed of sound: Frequency=2 MHz, Sing-around technique in a fixed-path interferometer; for viscosity: Oscillating disk viscometry; for mass density: Vibrating tube method

NC1CCCCC1 [cyclohexylamine] + CN1CCCC1=O
Details	mass density [kg/m3]	speed of sound [m/s]	viscosity [mPa·s]
303.15 K, x2 = 0	857.71	1397.8	1.797
303.15 K, x2 = 0.1171	877.49	1424.2	1.791
303.15 K, x2 = 0.2299	896.91	1448.4	1.789
303.15 K, x2 = 0.3385	915.83	1469.1	1.784
303.15 K, x2 = 0.4432	933.86	1487.8	1.773
303.15 K, x2 = 0.5442	950.84	1504.3	1.754
303.15 K, x2 = 0.6417	966.69	1518.1	1.727
303.15 K, x2 = 0.7358	981.66	1530.2	1.693
303.15 K, x2 = 0.8268	995.81	1540.3	1.648
303.15 K, x2 = 0.9149	1009.73	1548.2	1.592
308.15 K, x2 = 0	853.14	1379.2	1.704
308.15 K, x2 = 0.1171	873.25	1406.8	1.69
308.15 K, x2 = 0.2299	892.71	1429.4	1.678
308.15 K, x2 = 0.3385	911.69	1449.1	1.668
308.15 K, x2 = 0.4432	929.76	1467.1	1.655
308.15 K, x2 = 0.5442	946.83	1483.1	1.636
308.15 K, x2 = 0.6417	962.86	1496.5	1.607
308.15 K, x2 = 0.7358	977.92	1507.7	1.569
308.15 K, x2 = 0.8268	992.5	1517.2	1.522
308.15 K, x2 = 0.9149	1006.41	1524.6	1.47
313.15 K, x2 = 0	848.61	1360.6	1.617
313.15 K, x2 = 0.1171	869.06	1389.2	1.6
313.15 K, x2 = 0.2299	888.52	1411.4	1.588
313.15 K, x2 = 0.3385	907.42	1430.5	1.575
313.15 K, x2 = 0.4432	925.48	1447.6	1.56
313.15 K, x2 = 0.5442	942.64	1462.5	1.541
313.15 K, x2 = 0.6417	958.87	1475.1	1.514
313.15 K, x2 = 0.7358	974.13	1485.7	1.477
313.15 K, x2 = 0.8268	988.74	1494.6	1.432
313.15 K, x2 = 0.9149	1002.53	1500.8	1.38
318.15 K, x2 = 0	844.07	1342	1.506
318.15 K, x2 = 0.1171	864.89	1371.7	1.484
318.15 K, x2 = 0.2299	884.43	1393.8	1.463
318.15 K, x2 = 0.3385	903.34	1412.2	1.442
318.15 K, x2 = 0.4432	921.45	1428.7	1.422
318.15 K, x2 = 0.5442	938.47	1443.2	1.401
318.15 K, x2 = 0.6417	954.68	1455.4	1.375
318.15 K, x2 = 0.7358	970.14	1465.4	1.341
318.15 K, x2 = 0.8268	984.78	1473.6	1.298
318.15 K, x2 = 0.9149	998.55	1477.8	1.251

OC1CCCCC1 [cyclohexanol] + CN1CCCC1=O
Details	mass density [kg/m3]	speed of sound [m/s]	viscosity [mPa·s]
303.15 K, x2 = 0	941.32	1443.2	41.07
303.15 K, x2 = 0.1088	952.25	1462.3	36.8
303.15 K, x2 = 0.2155	962.68	1480.5	32.6
303.15 K, x2 = 0.3201	973.14	1495.7	28.48
303.15 K, x2 = 0.4228	983.38	1508.8	24.44
303.15 K, x2 = 0.5235	992.24	1520.5	20.47
303.15 K, x2 = 0.6223	999.61	1530.5	16.55
303.15 K, x2 = 0.7194	1005.72	1538.4	12.7
303.15 K, x2 = 0.8146	1011.65	1544.3	8.912
303.15 K, x2 = 0.9081	1017.47	1549.2	5.186
308.15 K, x2 = 0	937.23	1419.6	27.95
308.15 K, x2 = 0.1088	948.65	1440.8	25.09
308.15 K, x2 = 0.2155	959.48	1458.7	22.27
308.15 K, x2 = 0.3201	970.04	1473.4	19.52
308.15 K, x2 = 0.4228	979.96	1486.2	16.81
308.15 K, x2 = 0.5235	988.83	1497.5	14.15
308.15 K, x2 = 0.6223	996.39	1506.9	11.52
308.15 K, x2 = 0.7194	1002.69	1515.1	8.928
308.15 K, x2 = 0.8146	1008.39	1521.2	6.381
308.15 K, x2 = 0.9081	1014.23	1525.2	3.878
313.15 K, x2 = 0	933.48	1395.2	16.66
313.15 K, x2 = 0.1088	945.29	1418.3	15.01
313.15 K, x2 = 0.2155	956.55	1436.2	13.39
313.15 K, x2 = 0.3201	967.18	1450.8	11.81
313.15 K, x2 = 0.4228	976.72	1463.7	10.25
313.15 K, x2 = 0.5235	985.29	1475.1	8.714
313.15 K, x2 = 0.6223	992.87	1484.6	7.194
313.15 K, x2 = 0.7194	999.41	1492.4	5.69
313.15 K, x2 = 0.8146	1005.24	1498.2	4.211
313.15 K, x2 = 0.9081	1010.33	1500.6	2.76
318.15 K, x2 = 0	928.11	1370.8	8.888
318.15 K, x2 = 0.1088	940.43	1395.7	8.064
318.15 K, x2 = 0.2155	952.24	1413.7	7.26
318.15 K, x2 = 0.3201	963.21	1428.6	6.472
318.15 K, x2 = 0.4228	972.85	1441.9	5.694
318.15 K, x2 = 0.5235	981.32	1453.3	4.926
318.15 K, x2 = 0.6223	988.87	1462.8	4.163
318.15 K, x2 = 0.7194	995.46	1471.1	3.406
318.15 K, x2 = 0.8146	1001.47	1476.7	2.658
318.15 K, x2 = 0.9081	1006.79	1477.6	1.924

C1=CCCCC1 [cyclohexene] + CN1CCCC1=O
Details	mass density [kg/m3]	speed of sound [m/s]	viscosity [mPa·s]
303.15 K, x2 = 0	801.81	1252.1	0.581
303.15 K, x2 = 0.1052	818.56	1267.5	0.612
303.15 K, x2 = 0.2091	834.84	1285.6	0.653
303.15 K, x2 = 0.3119	851.21	1307.1	0.698
303.15 K, x2 = 0.4135	868.75	1330.4	0.748
303.15 K, x2 = 0.514	889.05	1356.2	0.812
303.15 K, x2 = 0.6134	912.45	1384.5	0.897
303.15 K, x2 = 0.7116	938.12	1417.6	1.009
303.15 K, x2 = 0.8088	964.81	1456.8	1.148
303.15 K, x2 = 0.9049	992.11	1502.7	1.315
308.15 K, x2 = 0	797.25	1224.8	0.549
308.15 K, x2 = 0.1052	811.04	1240.5	0.579
308.15 K, x2 = 0.2091	827.32	1258.2	0.618
308.15 K, x2 = 0.3119	844.1	1278.6	0.663
308.15 K, x2 = 0.4135	862.03	1301.5	0.715
308.15 K, x2 = 0.514	882.54	1326.4	0.775
308.15 K, x2 = 0.6134	906.06	1355.1	0.853
308.15 K, x2 = 0.7116	931.63	1388.3	0.954
308.15 K, x2 = 0.8088	957.89	1426.8	1.081
308.15 K, x2 = 0.9049	985.56	1472.5	1.235
313.15 K, x2 = 0	792.61	1196.6	0.516
313.15 K, x2 = 0.1052	804.12	1212.4	0.551
313.15 K, x2 = 0.2091	819.12	1230.5	0.587
313.15 K, x2 = 0.3119	836.04	1250.4	0.63
313.15 K, x2 = 0.4135	854.81	1273.5	0.68
313.15 K, x2 = 0.514	875.73	1298.8	0.742
313.15 K, x2 = 0.6134	899.06	1327.1	0.818
313.15 K, x2 = 0.7116	924.14	1360.3	0.914
313.15 K, x2 = 0.8088	950.51	1398.7	1.031
313.15 K, x2 = 0.9049	979.38	1444.1	1.171
318.15 K, x2 = 0	788.02	1169.6	0.488
318.15 K, x2 = 0.1052	798.05	1185.2	0.522
318.15 K, x2 = 0.2091	813.05	1202.2	0.558
318.15 K, x2 = 0.3119	829.52	1222.2	0.597
318.15 K, x2 = 0.4135	847.61	1245.2	0.642
318.15 K, x2 = 0.514	868.15	1270.4	0.698
318.15 K, x2 = 0.6134	891.64	1298.6	0.771
318.15 K, x2 = 0.7116	917.16	1330.3	0.856
318.15 K, x2 = 0.8088	943.71	1369.2	0.956
318.15 K, x2 = 0.9049	972.27	1416.1	1.072

Reference: the NIST ThermoML archive (doi:10.1016/j.tca.2014.06.026)
